Experimental findings from the supplement of paper PMC10307832 are described below.

Common to all, as to assay: relative viability (nuclei count vs DMSO), 5 days (fraction); higher = more cells survive
Compound in assay [1]: Cc1ccc2nc(NCCN)c3ncc(C)n3c2c1 + CS(=O)(=O)CCNCc1ccc(-c2ccc3ncnc(Nc4ccc(OCc5cccc(F)c5)c(Cl)c4)c3c2)o1 [Lapatinib] (partner 2 µM)
In short, it runs like this:
(§1)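 Lung cancer cell lines were seeded in 1536-well plates and dosed by pin tool the next day, with either a single drug or a fixed anchor-drug dose combined with five library-drug doses (not always all listed) spaced in √10 steps. Five days later, one step fixed the cells and stained their nuclei (final 0.05% Triton X-100, 1% formaldehyde, 1 ug/ml Hoechst), and nuclei were counted on 4× images. Relative viability is the nuclei count in treated wells divided by the count in vehicle wells, and each value is the median of duplicate plates.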

Compound in assay [2]: Cc1ccc2nc(NCCN)c3ncc(C)n3c2c1 + Cc1nc(Nc2ncc(C(=O)Nc3c(C)cccc3Cl)s2)cc(N2CCN(CCO)CC2)n1 [Dasatinib] (partner 0.075 µM)
The procedure, abridged:
as §1

Compound in the assay “Salubrinal + Crizotinib”: O=C(/C=C/c1ccccc1)NC(NC(=S)Nc1cccc2cccnc12)C(Cl)(Cl)Cl [Salubrinal] + C[C@@H](Oc1cc(-c2cnn(C3CCNCC3)c2)cnc1N)c1c(Cl)ccc(F)c1Cl [Crizotinib] (partner 1 µM)
In short, it runs like this:
as §1

Compound in the assay “Salubrinal + Olaparib”: O=C(/C=C/c1ccccc1)NC(NC(=S)Nc1cccc2cccnc12)C(Cl)(Cl)Cl [Salubrinal] + O=C(c1cc(Cc2n[nH]c(=O)c3ccccc23)ccc1F)N1CCN(C(=O)C2CC2)CC1 [Olaparib] (partner 8 µM)
The procedure, abridged: as §1

On to SW 1573, for which the relative viability in assay [1] (first compound 0.04 µM) was found to be 1.07; in assay [1] (first compound 0.1265 µM), 1.1; in assay [1] (first compound 0.4 µM), 1.19; in assay [1] (first compound 1.265 µM), 1.42; in assay [1] (first compound 4 µM), 0.954; in assay [2] (first compound 0.04 µM), 0.576. The relative viability in assay [2] (first compound 0.1265 µM) turned out to be 0.534; in assay [2] (first compound 0.4 µM), 0.468; in assay [2] (first compound 1.265 µM), 0.48; in assay [2] (first compound 4 µM) it was 0.244; in the assay with Salubrinal + Crizotinib (first compound 0.08 µM), 0.653; in the assay with Salubrinal + Crizotinib (first compound 0.253 µM), 0.747. Besides, the relative viability is 0.866 in the assay with Salubrinal + Crizotinib (first compound 0.8 µM); 0.781 with Salubrinal + Crizotinib (first compound 2.53 µM); 0.898 in the assay with Salubrinal + Crizotinib (first compound 8 µM); 0.607 with Salubrinal + Olaparib (first compound 0.08 µM); 0.488 with Salubrinal + Olaparib (first compound 0.253 µM); 0.542 with Salubrinal + Olaparib (first compound 0.8 µM). The relative viability with Salubrinal + Olaparib (first compound 2.53 µM) turned out to be 0.43; in the assay with Salubrinal + Olaparib (first compound 8 µM), 0.522.
On to NCI-H1944, for which the relative viability in assay [1] (first compound 0.04 µM) stood at 0.772; in assay [1] (first compound 0.1265 µM), 0.805; in assay [1] (first compound 0.4 µM) it was 0.642; in assay [1] (first compound 1.265 µM), 0.978; in assay [1] (first compound 4 µM), 0.758; in assay [2] (first compound 0.04 µM) it was 0.242. In addition, the relative viability in assay [2] (first compound 0.1265 µM) amounted to 0.216; in assay [2] (first compound 0.4 µM) it was 0.212; in assay [2] (first compound 1.265 µM), 0.269; in assay [2] (first compound 4 µM), 0.248; in the assay with Salubrinal + Crizotinib (first compound 0.08 µM), 1.22; with Salubrinal + Crizotinib (first compound 0.253 µM), 1.12. Moreover, the relative viability in the assay with Salubrinal + Crizotinib (first compound 0.8 µM) was 1.29; with Salubrinal + Crizotinib (first compound 2.53 µM), 1.08; in the assay with Salubrinal + Crizotinib (first compound 8 µM), 1.21; in the assay with Salubrinal + Olaparib (first compound 0.08 µM), 0.435; with Salubrinal + Olaparib (first compound 0.253 µM) it was 0.478; with Salubrinal + Olaparib (first compound 0.8 µM), 0.461. Besides, the relative viability with Salubrinal + Olaparib (first compound 2.53 µM) was 0.431; in the assay with Salubrinal + Olaparib (first compound 8 µM) it was 0.417.
Take EPLC-272H: the relative viability came out at 1.04 in assay [1] (first compound 0.04 µM); 0.981 in assay [1] (first compound 0.1265 µM); 0.777 in assay [1] (first compound 0.4 µM); 0.829 in assay [1] (first compound 1.265 µM); 0.977 in assay [1] (first compound 4 µM); 0.414 in assay [2] (first compound 0.04 µM). The relative viability in assay [2] (first compound 0.1265 µM) stood at 0.411; in assay [2] (first compound 0.4 µM), 0.489; in assay [2] (first compound 1.265 µM), 0.406; in assay [2] (first compound 4 µM), 0.382; in the assay with Salubrinal + Crizotinib (first compound 0.08 µM), 0.976; in the assay with Salubrinal + Crizotinib (first compound 0.253 µM), 0.839. Also, the relative viability is 0.887 in the assay with Salubrinal + Crizotinib (first compound 0.8 µM); 1.03 with Salubrinal + Crizotinib (first compound 2.53 µM); 0.949 with Salubrinal + Crizotinib (first compound 8 µM); 0.913 with Salubrinal + Olaparib (first compound 0.08 µM); 0.977 with Salubrinal + Olaparib (first compound 0.8 µM); 0.596 with Salubrinal + Olaparib (first compound 2.53 µM). The relative viability with Salubrinal + Olaparib (first compound 8 µM) was found to be 0.452.
PC-3 [JPC-3]: the relative viability in assay [1] (first compound 0.04 µM) came out at 0.475; in assay [1] (first compound 0.1265 µM) it was 0.45; in assay [1] (first compound 0.4 µM), 0.42; in assay [1] (first compound 1.265 µM), 0.448; in assay [1] (first compound 4 µM), 0.424; in assay [2] (first compound 0.04 µM), 1.11. Moreover, the relative viability was determined as 0.995 in assay [2] (first compound 0.1265 µM); 0.857 in assay [2] (first compound 0.4 µM); 1.01 in assay [2] (first compound 1.265 µM); 0.932 in assay [2] (first compound 4 µM); 1.08 with Salubrinal + Crizotinib (first compound 0.08 µM); 0.679 with Salubrinal + Crizotinib (first compound 0.253 µM). Besides, the relative viability with Salubrinal + Crizotinib (first compound 0.8 µM) turned out to be 1.11; in the assay with Salubrinal + Crizotinib (first compound 2.53 µM), 0.976; in the assay with Salubrinal + Crizotinib (first compound 8 µM) it was 0.997; with Salubrinal + Olaparib (first compound 0.08 µM), 1.16; with Salubrinal + Olaparib (first compound 0.253 µM), 0.567; in the assay with Salubrinal + Olaparib (first compound 0.8 µM), 1.23. The figures for the relative viability with Salubrinal + Olaparib (first compound 2.53 µM) and with Salubrinal + Olaparib (first compound 8 µM) were 1.1 and 1.09, respectively.
Consider NCI-H650, for which the relative viability was determined as 0.927 in assay [1] (first compound 0.04 µM); 0.123 in assay [1] (first compound 0.1265 µM); 0.645 in assay [1] (first compound 0.4 µM); 0.969 in assay [1] (first compound 1.265 µM); 0.761 in assay [1] (first compound 4 µM); 0.49 in assay [2] (first compound 0.04 µM). Moreover, the relative viability was 0.449 in assay [2] (first compound 0.1265 µM); 0.464 in assay [2] (first compound 0.4 µM); 0.431 in assay [2] (first compound 1.265 µM); 0.448 in assay [2] (first compound 4 µM); 0.701 with Salubrinal + Crizotinib (first compound 0.08 µM); 0.656 with Salubrinal + Crizotinib (first compound 0.253 µM). Besides, the relative viability with Salubrinal + Crizotinib (first compound 0.8 µM) came to 0.792; in the assay with Salubrinal + Crizotinib (first compound 2.53 µM) it was 0.637; in the assay with Salubrinal + Crizotinib (first compound 8 µM) it was 0.765; with Salubrinal + Olaparib (first compound 0.08 µM), 0.438; with Salubrinal + Olaparib (first compound 0.253 µM), 0.45; with Salubrinal + Olaparib (first compound 0.8 µM), 0.474. Moreover, the results for the relative viability with Salubrinal + Olaparib (first compound 2.53 µM) and with Salubrinal + Olaparib (first compound 8 µM) were 0.385 and 0.381, respectively.
Take NCI-H838: the relative viability was determined as 1.08 in assay [1] (first compound 0.04 µM); 1.01 in assay [1] (first compound 0.1265 µM); 0.919 in assay [1] (first compound 0.4 µM); 0.974 in assay [1] (first compound 1.265 µM); 0.837 in assay [1] (first compound 4 µM); 0.347 in assay [2] (first compound 0.04 µM). The relative viability in assay [2] (first compound 0.1265 µM) was found to be 0.336; in assay [2] (first compound 0.4 µM), 0.251; in assay [2] (first compound 1.265 µM), 0.231; in assay [2] (first compound 4 µM) it was 0.261; in the assay with Salubrinal + Crizotinib (first compound 0.08 µM), 1.08; with Salubrinal + Crizotinib (first compound 0.253 µM), 0.719. Besides, the relative viability in the assay with Salubrinal + Crizotinib (first compound 0.8 µM) was determined as 0.854; with Salubrinal + Crizotinib (first compound 2.53 µM), 0.951; with Salubrinal + Crizotinib (first compound 8 µM), 0.82; with Salubrinal + Olaparib (first compound 0.08 µM), 0.896; with Salubrinal + Olaparib (first compound 0.253 µM), 0.542; with Salubrinal + Olaparib (first compound 0.8 µM), 0.832. In addition, the relative viability amounted to 0.789 with Salubrinal + Olaparib (first compound 2.53 µM) and 0.716 with Salubrinal + Olaparib (first compound 8 µM).
With COR-L 105, the relative viability worked out at 0.451 in assay [1] (first compound 0.04 µM); 0.351 in assay [1] (first compound 0.1265 µM); 0.352 in assay [1] (first compound 0.4 µM); 0.399 in assay [1] (first compound 1.265 µM); 0.339 in assay [1] (first compound 4 µM); 0.446 in assay [2] (first compound 0.04 µM). Further, the relative viability in assay [2] (first compound 0.1265 µM) is 0.385; in assay [2] (first compound 0.4 µM) it was 0.416; in assay [2] (first compound 1.265 µM), 0.402; in assay [2] (first compound 4 µM), 0.343; in the assay with Salubrinal + Crizotinib (first compound 0.08 µM), 0.962; with Salubrinal + Crizotinib (first compound 0.253 µM) it was 0.624. In addition, the relative viability with Salubrinal + Crizotinib (first compound 0.8 µM) amounted to 0.76; with Salubrinal + Crizotinib (first compound 2.53 µM), 0.772; in the assay with Salubrinal + Crizotinib (first compound 8 µM), 0.689; with Salubrinal + Olaparib (first compound 0.08 µM), 0.617; with Salubrinal + Olaparib (first compound 0.253 µM) it was 0.732; with Salubrinal + Olaparib (first compound 0.8 µM), 0.592. The relative viability with Salubrinal + Olaparib (first compound 2.53 µM) turned out to be 0.662; in the assay with Salubrinal + Olaparib (first compound 8 µM), 0.587.
